# Data reported in patent US8952024B2, “Herbicidal pyrimidone derivatives” (E I du Pont de Nemours and Company, priority 2009, dated 2015).
# Key:
# Assay type in all cases: in vivo
# Settings in all cases: Postemergence
# corn (Zea mays) = experiment: Test B pre-/postemergence plant response
# Text: (§1) Seeds of plant species selected from blackgrass (Alopecurus myosuroides), downy bromegrass (Bromus tectorum), green foxtail (Setaria viridis), Italian ryegrass (Lolium multiflorum), wheat (Triticum aestivum), wild oat (Avena fatua), deadnettle (henbit deadnettle, Lamium amplexicaule), galium (catchweed bedstraw, Galium aparine), bermudagrass (Cynodon dactylon), Surinam grass (Brachiaria decumbens), cocklebur (Xanthium strumarium), corn (Zea mays), large crabgrass (Digitaria sanguinalis), woolly cupgrass (Eriochloa villosa), giant foxtail (Setaria faberii), goosegrass (Eleusine indica), johnsongrass (Sorghum halepense), kochia (Kochia scoparia), lambsquarters (Chenopodium album), morningglory (Ipomoea coccinea), nightshade (eastern black nightshade, Solanum ptycanthum), yellow nutsedge (Cyperus esculentus), pigweed (Amaranthus retroflexus), ragweed (common ragweed, Ambrosia elatior), Russian thistle (Salsola kali), soybean (Glycine max), sunflower (common oilseed sunflower, Helianthus annuus) and velvetleaf (Abutilon theophrasti) were planted into a blend of loam soil and sand and treated preemergence with test compounds formulated in a non-phytotoxic solvent mixture which included a surfactant.
# (§2) At the same time, plants selected from these crop and weed species and also winter barley (Hordeum vulgare), canarygrass (Phalaris minor), chickweed (Stellaria media) and windgrass (Apera spica-venti) were planted in pots containing Redi-Earth® planting medium (Scotts Company, 14111 Scottslawn Road, Marysville, Ohio 43041) comprising spaghnum peat moss, vermiculite, wetting agent and starter nutrients and treated with postemergence applications of some of the test chemicals formulated in the same manner. Plants ranged in height from 2 to 18 cm (1- to 4-leaf stage) for postemergence treatments.
# (§3) Treated plants and controls were maintained in a greenhouse for 13 to 15 days, after which time all treated plants were visually evaluated and compared to controls. Plant response ratings, summarized in Table B, are based on a scale of 0 to 100 where 0 is no effect and 100 is complete control. A dash (-) response means no test result.
# [1] = system: giant foxtail (Setaria faberii); experiment: Test B pre-/postemergence plant response
# Text: as §1, §2, §3
# [2] = system: goosegrass (Eleusine indica); experiment: Test B pre-/postemergence plant response
# Text: as §1, §2, §3
# [3] = system: green foxtail (Setaria viridis); experiment: Test B pre-/postemergence plant response
# Text: as §1, §2, §3
# [4] = system: johnsongrass (Sorghum halepense); experiment: Test B pre-/postemergence plant response
# Text: as §1, §2, §3
# [5] = system: lambsquarters (Chenopodium album); experiment: Test B pre-/postemergence plant response
# Text: as §1, §2, §3
# [6] = system: pigweed (Amaranthus retroflexus); experiment: Test B pre-/postemergence plant response
# Text: as §1, §2, §3
# soybean (Glycine max) = experiment: Test B pre-/postemergence plant response
# Text: as §1, §2, §3
# [7] = system: velvetleaf (Abutilon theophrasti); experiment: Test B pre-/postemergence plant response
# Text: as §1, §2, §3
# [8] = system: yellow nutsedge (Cyperus esculentus); experiment: Test B pre-/postemergence plant response
# Text: as §1, §2, §3
# [9] = system: canarygrass (Phalaris minor); experiment: Test B postemergence plant response
# Summary of the method: (§4)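 Plants at the 1- to 4-leaf stage (2 to 18 cm tall), grown in pots of peat moss/vermiculite medium with wetting agent and starter nutrients, received postemergence applications of test chemicals. After 13 to 15 days in a greenhouse, injury was rated visually against untreated controls on a 0 (no effect) to 100 (complete control) scale.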
# [10] = system: chickweed (Stellaria media); experiment: Test B postemergence plant response
# Summary of the method: as §4
# [11] = system: windgrass (Apera spica-venti); experiment: Test B postemergence plant response
# Summary of the method: as §4
# [12] = system: winter barley (Hordeum vulgare); experiment: Test B postemergence plant response
# Summary of the method: as §4
# [13] = 31 g ai/ha, 0 to 100 scale (0 no effect, 100 complete control)
# [14] = 62 g ai/ha, scale 0 to 100 (0 no effect, 100 complete control)
# [15] = 125 g ai/ha, scale 0 to 100 (0 no effect, 100 complete control)
# [16] = 250 g ai/ha, scale 0 to 100 (0 no effect, 100 complete control), 13 to 15 days
compound,measurement,setting,value
O=C(C1=C(O)C2CCC(C2)C1=O)c1cnc(-c2ccsc2)n(CC2CCCO2)c1=O (stereo not shown) [Compound 229],"Plant response rating, Corn",corn (Zea mays); [13],70
same,"Plant response rating, Corn",corn (Zea mays); [14],80
same,"Plant response rating, Corn",corn (Zea mays); [15],85
same,"Plant response rating, Corn",corn (Zea mays); [16],85
same,"Plant response rating, Foxtail, Giant",[1]; [13],75
same,"Plant response rating, Foxtail, Giant",[1]; [14],80
same,"Plant response rating, Foxtail, Giant",[1]; [15],80
same,"Plant response rating, Foxtail, Giant",[1]; [16],95
same,"Plant response rating, Goosegrass",[2]; [13],70
same,"Plant response rating, Goosegrass",[2]; [14],70
same,"Plant response rating, Goosegrass",[2]; [15],70
same,"Plant response rating, Goosegrass",[2]; [16],80
same,"Plant response rating, Foxtail, Green",[3]; [13],40
same,"Plant response rating, Foxtail, Green",[3]; [14],80
same,"Plant response rating, Foxtail, Green",[3]; [15],80
same,"Plant response rating, Foxtail, Green",[3]; [16],95
same,"Plant response rating, Johnsongrass",[4]; [13],70
same,"Plant response rating, Johnsongrass",[4]; [14],100
same,"Plant response rating, Johnsongrass",[4]; [15],100
same,"Plant response rating, Johnsongrass",[4]; [16],100
same,"Plant response rating, Lambsquarters",[5]; [13],85
same,"Plant response rating, Lambsquarters",[5]; [14],95
same,"Plant response rating, Lambsquarters",[5]; [15],95
same,"Plant response rating, Lambsquarters",[5]; [16],98
same,"Plant response rating, Pigweed",[6]; [13],80
same,"Plant response rating, Pigweed",[6]; [14],95
same,"Plant response rating, Pigweed",[6]; [16],100
same,"Plant response rating, Soybean",soybean (Glycine max); [13],95
same,"Plant response rating, Soybean",soybean (Glycine max); [14],98
same,"Plant response rating, Soybean",soybean (Glycine max); [16],98
same,"Plant response rating, Velvetleaf",[7]; [13],75
same,"Plant response rating, Velvetleaf",[7]; [14],75
same,"Plant response rating, Velvetleaf",[7]; [16],85
same,"Plant response rating, Nutsedge, Yellow",[8]; [13],0
same,"Plant response rating, Nutsedge, Yellow",[8]; [14],20
same,"Plant response rating, Nutsedge, Yellow",[8]; [15],40
same,"Plant response rating, Nutsedge, Yellow",[8]; [16],55
same,"Plant response rating, Canarygrass",[9]; [13],5
same,"Plant response rating, Canarygrass",[9]; [14],15
same,"Plant response rating, Canarygrass",[9]; [15],50
same,"Plant response rating, Canarygrass",[9]; [16],60
same,"Plant response rating, Chickweed",[10]; [13],70
same,"Plant response rating, Chickweed",[10]; [14],85
same,"Plant response rating, Chickweed",[10]; [15],90
same,"Plant response rating, Chickweed",[10]; [16],98
same,"Plant response rating, Windgrass",[11]; [13],0
same,"Plant response rating, Windgrass",[11]; [14],40
same,"Plant response rating, Windgrass",[11]; [16],65
same,"Plant response rating, Barley",[12]; [13],0
same,"Plant response rating, Barley",[12]; [14],0
same,"Plant response rating, Barley",[12]; [15],5
same,"Plant response rating, Barley",[12]; [16],25
